Active and inactive are the calls of the source. The rule behind the calls is not given here.
How the values were obtained:
[1] = Toxicity in nude mouse assessed as change in body weight at 30 mg/kg administered every 2 days for 21 days in presence of vincristine; format: organism-based; conditions: in vivo, 48 h, time 2 day
ECa-109 cell line [2] = assay: Synergistic antitumor activity against in vincristine resistant p-gp overexpressing human Eca-109 cells xenografted in nude mouse assessed as inhibition of tumor growth rate at 30 mg/kg, IG administered every two days for 21 days in presence of vincristine relative to control; format: functional; design: scale not given: the % may be the effect or the level left; conditions: time 21 day
[3] = target: T1, Broad substrate specificity ATP-binding cassette transporter ABCG2 (Homo sapiens, UniProt Q9UNQ0); assay: Binding affinity to ABCG2 in vincristine resistant human Eca-109 cells assessed as stabilization of protein at 100 uM incubated for 30 mins by thermal shift assay; format: cell-based; conditions: eca-109, 0.5 h
T1 sequence (Q9UNQ0 whole entry): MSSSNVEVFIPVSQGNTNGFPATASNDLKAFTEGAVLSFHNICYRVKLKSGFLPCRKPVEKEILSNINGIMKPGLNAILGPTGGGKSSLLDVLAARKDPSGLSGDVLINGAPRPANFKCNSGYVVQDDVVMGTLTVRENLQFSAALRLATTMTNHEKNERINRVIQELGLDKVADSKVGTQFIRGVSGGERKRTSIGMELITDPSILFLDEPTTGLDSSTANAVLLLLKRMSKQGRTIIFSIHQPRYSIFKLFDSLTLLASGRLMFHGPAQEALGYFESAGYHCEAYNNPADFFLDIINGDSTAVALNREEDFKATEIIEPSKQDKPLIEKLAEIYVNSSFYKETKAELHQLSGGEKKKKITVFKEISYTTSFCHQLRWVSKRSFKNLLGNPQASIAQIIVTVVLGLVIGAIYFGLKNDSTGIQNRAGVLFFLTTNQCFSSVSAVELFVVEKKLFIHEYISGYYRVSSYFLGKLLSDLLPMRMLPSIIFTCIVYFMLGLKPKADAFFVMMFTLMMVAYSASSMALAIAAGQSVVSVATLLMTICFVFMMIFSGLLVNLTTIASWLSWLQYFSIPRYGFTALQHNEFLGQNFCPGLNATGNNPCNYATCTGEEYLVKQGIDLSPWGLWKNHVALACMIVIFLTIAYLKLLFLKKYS

ECa-109 cell line [4] = assay: Synergistic antitumor activity against in vincristine resistant p-gp overexpressing human Eca-109 cells xenografted in nude mouse assessed as increase in vacuoles at 30 mg/kg, IG administered every two days for 21 days in presence of vincristine by TUNEL analysis; format: functional, organism-based; conditions: time 21.0 day
[5] = target: T2, ATP-dependent translocase ABCB1 (Homo sapiens, UniProt P08183); assay: Binding affinity to P-gp in vincristine resistant human Eca-109 cells assessed as stabilization of protein at 67 degree C at 100 uM incubated for 30 mins by thermal shift assay; format: cell-based; conditions: eca-109, 0.5 h
T2 sequence (P08183 whole entry): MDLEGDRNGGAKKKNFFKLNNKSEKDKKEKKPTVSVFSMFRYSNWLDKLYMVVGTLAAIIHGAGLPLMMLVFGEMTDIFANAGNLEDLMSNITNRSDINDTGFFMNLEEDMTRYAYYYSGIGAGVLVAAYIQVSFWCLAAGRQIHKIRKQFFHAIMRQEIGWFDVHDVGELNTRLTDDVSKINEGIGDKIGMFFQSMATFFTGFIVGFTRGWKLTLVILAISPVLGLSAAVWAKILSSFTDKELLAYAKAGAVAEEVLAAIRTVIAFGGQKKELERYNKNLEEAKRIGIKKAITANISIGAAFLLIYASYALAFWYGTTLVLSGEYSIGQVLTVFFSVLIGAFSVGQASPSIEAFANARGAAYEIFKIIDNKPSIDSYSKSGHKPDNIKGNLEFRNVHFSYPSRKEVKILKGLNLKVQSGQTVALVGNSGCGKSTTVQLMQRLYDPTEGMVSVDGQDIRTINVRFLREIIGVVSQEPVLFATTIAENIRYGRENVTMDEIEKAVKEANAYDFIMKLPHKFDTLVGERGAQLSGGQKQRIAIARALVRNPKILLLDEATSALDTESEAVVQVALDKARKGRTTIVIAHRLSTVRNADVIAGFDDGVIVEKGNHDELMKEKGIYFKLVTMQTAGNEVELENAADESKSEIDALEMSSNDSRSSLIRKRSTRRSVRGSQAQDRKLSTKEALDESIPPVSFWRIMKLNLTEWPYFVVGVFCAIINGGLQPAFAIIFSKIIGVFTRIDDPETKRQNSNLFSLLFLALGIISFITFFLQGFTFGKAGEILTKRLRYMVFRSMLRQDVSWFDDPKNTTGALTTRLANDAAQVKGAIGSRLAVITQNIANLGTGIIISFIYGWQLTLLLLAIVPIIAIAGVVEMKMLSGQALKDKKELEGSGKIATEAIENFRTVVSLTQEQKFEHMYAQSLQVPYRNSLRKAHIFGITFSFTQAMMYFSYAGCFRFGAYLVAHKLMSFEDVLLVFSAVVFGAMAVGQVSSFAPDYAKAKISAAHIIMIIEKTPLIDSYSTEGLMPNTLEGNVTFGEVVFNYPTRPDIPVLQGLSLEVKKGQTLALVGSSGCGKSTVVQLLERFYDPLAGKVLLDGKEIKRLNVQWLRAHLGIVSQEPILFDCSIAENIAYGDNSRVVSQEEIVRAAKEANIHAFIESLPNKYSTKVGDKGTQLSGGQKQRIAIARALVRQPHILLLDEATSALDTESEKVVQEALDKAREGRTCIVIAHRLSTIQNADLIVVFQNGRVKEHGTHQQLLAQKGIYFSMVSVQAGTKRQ

ECa-109 cell line [6] = assay: Induction of apoptosis in vincristine resistant human Eca-109 cells assessed as necrotic cells at 1 uM incubated for 24 hrs by AnnexinV-FITC/PI staining based flow cytometric analysis (reference value: 0.25%); format: functional
ECa-109 cell line [7] = assay: Induction of apoptosis in vincristine resistant human Eca-109 cells assessed as late apoptotic cells at 2.5 uM incubated for 24 hrs in presence of vincristine by AnnexinV-FITC/PI staining based flow cytometric analysis (reference value: 6.01%); format: functional
ECa-109 cell line [8] = assay: Cytotoxicity against human Eca-109 cells incubated for 48 hrs by CCK-8 method; format: functional, cell-based; conditions: ECa-109, 48 h
[9] = AUMC (0 to infinity) in Sprague-Dawley rat at 3 mg/kg, iv measured upto 24 hrs by UPLC/MS/MS analysis; format: ADME, organism-based; conditions: in vivo
ECa-109 cell line [10] = assay: Induction of apoptosis in vincristine resistant human Eca-109 cells assessed as early apoptotic cells at 5 uM incubated for 24 hrs in presence of vincristine by AnnexinV-FITC/PI staining based flow cytometric analysis (reference value: 4.43%); format: functional
[11] = Oral bioavailability in Sprague-Dawley rat at 30 mg/kg measured upto 24 hrs by UPLC/MS/MS analysis; format: ADME, organism-based; conditions: in vivo
ECa-109 cell line [12] = assay: Induction of apoptosis in vincristine resistant human Eca-109 cells assessed as early apoptotic cells at 2.5 uM incubated for 24 hrs by AnnexinV-FITC/PI staining based flow cytometric analysis (reference value: 2.30%); format: functional
ECa-109 cell line [13] = assay: Synergistic antitumor activity against in vincristine resistant p-gp overexpressing human Eca-109 cells xenografted in nude mouse assessed as inhibition of tumor proliferation at 30 mg/kg, IG administered every two days for 21 days in presence of vincristine; format: functional, organism-based; conditions: time 21.0 day
[14] = Cmax in Sprague-Dawley rat at 30 mg/kg, po measured upto 24 hrs by UPLC/MS/MS analysis; format: ADME, organism-based; design: time < 24 hrs, dose 30 mg/kg, route po; conditions: in vivo
ECa-109 cell line [15] = assay: Induction of apoptosis in vincristine resistant human Eca-109 cells assessed as necrotic cells at 1 uM incubated for 24 hrs in presence of vincristine by AnnexinV-FITC/PI staining based flow cytometric analysis (reference value: 0.35%); format: functional
ECa-109 cell line [16] = assay: Synergistic antitumor activity against in vincristine resistant p-gp overexpressing human Eca-109 cells xenografted in nude mouse assessed as reduction in tumor weight at 30 mg/kg, IG administered every two days for 21 days in presence of vincristine by caliper method; format: functional, organism-based; conditions: time 21.0 day
[17] = Cytotoxicity against human GES1 cells incubated for 48 hrs by CCK-8 method; format: toxicity, cell-based
[18] = MRT (0 to infinity) in Sprague-Dawley rat at 30 mg/kg, po measured upto 24 hrs by UPLC/MS/MS analysis; format: ADME, organism-based; conditions: in vivo
ECa-109 cell line [19] = assay: Induction of apoptosis in vincristine resistant human Eca-109 cells assessed as late apoptotic cells at 2.5 uM incubated for 24 hrs by AnnexinV-FITC/PI staining based flow cytometric analysis (reference value: 7.19%); format: functional
[20] = target: T2, ATP-dependent translocase ABCB1; assay: Inhibition of P-gp efflux in vincristine resistant human Eca-109 cells assessed as increase in intracellular accumulation of calcein-AM at 1 to 5 uM incubated for 1 hr by flow cytometry analysis; format: cell-based; conditions: eca-109, 1 h, dose 1-5 µM
ECa-109 cell line [21] = assay: Induction of apoptosis in vincristine resistant human Eca-109 cells assessed as viable cells at 5 uM incubated for 24 hrs by AnnexinV-FITC/PI staining based flow cytometric analysis (reference value: 90.3%); format: functional; conditions: read-out: Activity
[22] = Inhibition of clone formation in vincristine resistant human Eca-109 cells at 2 uM incubated for 48 hrs by crystal violet staining based analysis; format: functional
[23] = Apparent volume of distribution during terminal phase in Sprague-Dawley rat at 3 mg/kg, iv measured upto 24 hrs by UPLC/MS/MS analysis; format: ADME, organism-based; conditions: in vivo
ECa-109 cell line [24] = assay: Induction of apoptosis in vincristine resistant human Eca-109 cells assessed as early apoptotic cells at 1 uM incubated for 24 hrs by AnnexinV-FITC/PI staining based flow cytometric analysis (reference value: 2.30%); format: functional
[25] = Cytotoxicity against human LX2 cells incubated for 48 hrs by CCK-8 method; format: toxicity, cell-based, LX-2
[26] = Hepatotoxicity in nude mouse at 30 mg/kg, IG administered every two days for 21 days in presence of vincristine by H and E staining based analysis; format: toxicity, organism-based; conditions: in vivo, po, 504 h, time 21 day

Activity [3]: Not Active
Activity [5]: Active
AUMC [9]: 7391.35 ng/mL.hr^2
bioavailability [11]: 7.65%
Cmax [14]: 637 ng/mL
MRT inf [18]: 4.89 h
inhibition (INH) [20]: Active
Vz/F [23]: 12.84 L/kg
Structure (SMILES): COc1cc2c(cc1OC)C(Cc1ccc(OC)c(OCc3ccccc3)c1)N(C)CC2 (stereo unspecified)
Activity [1]: Non-Toxic
Activity (ECa-109 cell line [2]): 79.13%
Activity (ECa-109 cell line [4]): Active
Activity (ECa-109 cell line [6]): 0.15%
Activity (ECa-109 cell line [7]): 11.3%
IC50 (ECa-109 cell line [8]): > 100 µM
Activity (ECa-109 cell line [10]): 24.9%
Activity (ECa-109 cell line [12]): 2.26%
Activity (ECa-109 cell line [13]): Active
Activity (ECa-109 cell line [15]): 0.37%
Activity (ECa-109 cell line [16]): Active
IC50 at 48 h [17]: > 50 µM
Activity (ECa-109 cell line [19]): 5.69%
viability at 5 µM (ECa-109 cell line [21]): 90.8%
inhibition at 2 µM [22]: 100%
Activity (ECa-109 cell line [24]): 2.07%
IC50 at 48 h [25]: > 50 µM
Activity [26]: Non-Toxic

Reference: ChEMBL document CHEMBL5247655, “Simplified Derivatives of Tetrandrine as Potent and Specific P-gp Inhibitors to Reverse Multidrug Resistance in Cancer Chemotherapy” (J Med Chem, 2023)
